The subject of this assay is CD8F1 mice, subcutaneous mammary adenocarcinoma, T/C%. Description: NCI In Vivo Anticancer Drug Screen. Data for tumor model Mammary Adenocarcinoma CD8F1 (subcutaneous) in CD8F1. The settings on record: higher = larger tumour. In short, it runs like this:
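Antitumor activity is assessed in transplantable-tumor mice by comparing the treated group with a vehicle-treated control group. Survival or tumor size serves as the measure, reported as T divided by C.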

[1] abbreviates: endpoint: median tumor weight change, dose: 125.0 mg/kg/injection, schedule: Q01DX001 (ip), vehicle: saline.
[2] abbreviates: endpoint: median tumor weight change, dose: 250.0 mg/kg/injection, schedule: Q01DX001 (ip), vehicle: saline.
Setting [3] is: endpoint: median tumor weight (est.), dose: 12.5 mg/kg/injection, schedule: Q07DX005 (ip), vehicle: saline with Tween-80.
The mark [4] stands for this setting: endpoint: median tumor weight (est.), dose: 25.0 mg/kg/injection, schedule: Q07DX005 (ip), vehicle: saline with Tween-80.
[5] abbreviates: endpoint: median tumor weight (est.), dose: 50.0 mg/kg/injection, schedule: Q07DX005 (ip), vehicle: saline with Tween-80.
The mark [6] stands for this setting: endpoint: median tumor weight (est.), dose: 200.0 mg/kg/injection, schedule: Q07DX005 (ip), vehicle: saline with Tween-80.

16 molecules from PubChem BioAssay AID220 (DTP/NCI, 2004) can be followed below.

Each structure is given as a SMILES string. “And” between values parts separate entries of the source, which are not always exact repeats. Equal values may be shown once. Results filed as inconclusive are left out.

As for `C=CC(=O)NCNC(=O)C=C`, the T/C was 104 % of control (endpoint: median tumor weight (est.), dose: 12.5 mg/kg/injection, schedule: Q07DX005 (ip), vehicle: suspension in saline); 85 % of control (endpoint: median tumor weight (est.), dose: 25.0 mg/kg/injection, schedule: Q07DX005 (ip), vehicle: suspension in saline); 80 % of control (endpoint: median tumor weight (est.), dose: 50.0 mg/kg/injection, schedule: Q07DX005 (ip), vehicle: suspension in saline); 43 % of control (endpoint: median tumor weight (est.), dose: 100.0 mg/kg/injection, schedule: Q07DX005 (ip), vehicle: suspension in saline); 32 % of control (endpoint: median tumor weight (est.), dose: 200.0 mg/kg/injection, schedule: Q07DX005 (ip), vehicle: suspension in saline); 9 % of control (endpoint: median tumor weight (est.), dose: 400.0 mg/kg/injection, schedule: Q07DX005 (ip), vehicle: suspension in saline). Also, the T/C reads like this: (endpoint: median tumor weight change, dose: 62.5 mg/kg/injection, schedule: Q01DX001 (ip), vehicle: saline) 78 % of control; (endpoint: median tumor weight change, dose: 62.5 mg/kg/injection, schedule: Q01DX001 (ip), vehicle: suspension in saline) 90 % of control; (endpoint: median tumor weight change, dose: 72.0 mg/kg/injection, schedule: Q01DX001 (ip), vehicle: saline) 105 % of control; (endpoint: median tumor weight change, dose: 109.0 mg/kg/injection, schedule: Q01DX001 (ip), vehicle: saline) 150 % of control; under setting [1], 46 % of control; (endpoint: median tumor weight change, dose: 125.0 mg/kg/injection, schedule: Q01DX001 (ip), vehicle: suspension in saline) 42 % of control. For the same molecule, the T/C is 71 % of control (endpoint: median tumor weight change, dose: 165.0 mg/kg/injection, schedule: Q01DX001 (ip), vehicle: saline); 50 % of control and 74 % of control under setting [2]; -28 % of control (endpoint: median tumor weight change, dose: 250.0 mg/kg/injection, schedule: Q01DX001 (ip), vehicle: suspension in saline); 62 % of control (endpoint: median tumor weight change, dose: 379.0 mg/kg/injection, schedule: Q01DX001 (ip), vehicle: saline).

Turning to `COc1cccc2c1C(=O)c1c(O)c3c(c(O)c1C2=O)C[C@@](O)(C(=O)COC(=O)c1cccnc1)C[C@@H]3OC1CC(N)C(O)C(C)O1` (stereo partly specified), the T/C is 114 % of control (endpoint: mean tumor weight, dose: 0.5 mg/kg/injection, schedule: Q07DX006 (ip), vehicle: saline); 53 % of control (endpoint: mean tumor weight, dose: 1.0 mg/kg/injection, schedule: Q07DX006 (ip), vehicle: saline); 25 % of control (endpoint: mean tumor weight, dose: 2.0 mg/kg/injection, schedule: Q07DX006 (ip), vehicle: saline); 121 % of control (endpoint: median tumor weight (est.), dose: 0.5 mg/kg/injection, schedule: Q07DX005 (ip), vehicle: saline); 92 % of control (endpoint: median tumor weight (est.), dose: 1.0 mg/kg/injection, schedule: Q07DX005 (ip), vehicle: saline); 72 % of control and 75 % of control (endpoint: median tumor weight (est.), dose: 2.0 mg/kg/injection, schedule: Q07DX005 (ip), vehicle: saline). The T/C (endpoint: median tumor weight (est.), dose: 4.0 mg/kg/injection, schedule: Q07DX005 (ip), vehicle: saline) was 90 % of control.

As to `OC1CCCC2CCCNC12` (stereo unspecified), the T/C is 206 % of control (endpoint: median tumor weight (est.), dose: 6.25 mg/kg/injection, schedule: Q07DX005 (ip), vehicle: saline with Tween-80); 102 % of control under setting [3]; 171 % of control under setting [4]; 73 % of control under setting [5].

For `C[C@H](N)C(=O)N[C@@H]1[C@H]2C(=C(O)C[C@@H](O)[C@@H]2O)C(=O)O[C@]1(C)C(Cl)Cl`, the T/C runs as follows: (endpoint: median tumor weight change, dose: 1.87 mg/kg/injection, schedule: Q01DX001 (ip), vehicle: Klucel (hydroxypropylcellulose) (HPC)) 101 % of control; (endpoint: median tumor weight change, dose: 3.75 mg/kg/injection, schedule: Q01DX001 (ip), vehicle: Klucel (hydroxypropylcellulose) (HPC)) 101 % of control.

For `COC1=C(OC)C(=O)C(Sc2ccc3ccccc3c2)=CC1=O`, the T/C under setting [3] was 115 % of control, the T/C under setting [4] was 84 % of control, the T/C under setting [5] is 122 % of control and the T/C under setting [6] was 92 % of control.

In the case of `CN(C)C=O`, the T/C is, setting by setting: (endpoint: median tumor weight (est.), dose: 100.0 mg/kg/injection, schedule: Q07DX005 (ip), vehicle: saline) 78 % of control; (endpoint: median tumor weight (est.), dose: 400.0 mg/kg/injection, schedule: Q07DX005 (ip), vehicle: saline) 105 % of control; (endpoint: median tumor weight (est.), dose: 800.0 mg/kg/injection, schedule: Q07DX005 (ip), vehicle: saline) 96 % of control.

In the case of `COc1ccc(-c2csc(=[N+]3CCCCC3)s2)cc1`, the T/C runs as follows: (endpoint: median tumor weight change, dose: 31.0 mg/kg/injection, schedule: Q01DX001 (ip), vehicle: saline with Tween-80) 194 % of control; (endpoint: median tumor weight change, dose: 31.0 mg/kg/injection, schedule: Q01DX001 (ip), vehicle: water) 75 % of control.

Turning to `CCCCCNc1ncnc2c(C)[nH]nc12`, the T/C by setting is: (endpoint: median tumor weight change, dose: 62.5 mg/kg/injection, schedule: Q01DX001 (ip), vehicle: Klucel (hydroxypropylcellulose) (HPC)) 101 % of control; (endpoint: median tumor weight change, dose: 125.0 mg/kg/injection, schedule: Q01DX001 (ip), vehicle: Klucel (hydroxypropylcellulose) (HPC)) 89 % of control; (endpoint: median tumor weight change, dose: 250.0 mg/kg/injection, schedule: Q01DX001 (ip), vehicle: Klucel (hydroxypropylcellulose) (HPC)) 71 % of control.

On to `OCCOCCN1CCN(CCCN2c3ccccc3Sc3ccc(C(F)(F)F)cc32)CC1`, for which the T/C (endpoint: median tumor weight (est.), dose: 3.12 mg/kg/injection, schedule: Q07DX005 (ip), vehicle: saline) was 53 % of control; the T/C (endpoint: median tumor weight (est.), dose: 6.25 mg/kg/injection, schedule: Q07DX005 (ip), vehicle: saline) is 97 % of control; the T/C (endpoint: median tumor weight (est.), dose: 12.5 mg/kg/injection, schedule: Q07DX005 (ip), vehicle: saline) is 95 % of control; the T/C (endpoint: median tumor weight (est.), dose: 25.0 mg/kg/injection, schedule: Q07DX005 (ip), vehicle: saline) is 71 % of control; the T/C (endpoint: median tumor weight (est.), dose: 50.0 mg/kg/injection, schedule: Q07DX005 (ip), vehicle: saline) was 97 % of control.

Consider `Cc1c2cc[n+](C)cc2c(C)c2c1[nH]c1ccc(O)cc12`, for which the T/C (endpoint: median tumor weight change, dose: 0.62 mg/kg/injection, schedule: Q01DX001 (ip), vehicle: saline) is 101 % of control; the T/C (endpoint: median tumor weight change, dose: 1.25 mg/kg/injection, schedule: Q01DX001 (ip), vehicle: saline) is 67 % of control; the T/C (endpoint: median tumor weight change, dose: 2.5 mg/kg/injection, schedule: Q01DX001 (ip), vehicle: saline) was 60 % of control.

As to `C/C=C/C=C1/OC(C)=C(C(C)=O)C1=O`, the T/C (endpoint: median tumor weight change, dose: 125.0 mg/kg/injection, schedule: Q01DX001 (ip), vehicle: saline with Tween-80) was 94 % of control and 104 % of control; the T/C (endpoint: median tumor weight change, dose: 250.0 mg/kg/injection, schedule: Q01DX001 (ip), vehicle: saline with Tween-80) is 64 % of control.

Regarding `C=CCNc1nc2c(s1)CCc1cc(OC)c(OC)cc1-2`, the T/C under setting [3] is 65 % of control; the T/C under setting [4] is 44 % of control; the T/C under setting [5] was 55 % of control; the T/C (endpoint: median tumor weight (est.), dose: 100.0 mg/kg/injection, schedule: Q07DX005 (ip), vehicle: saline with Tween-80) is 74 % of control; the T/C under setting [6] is 81 % of control.

As for `COC1CC(C)C(OC)c2cc(O)cc(c2O)NC(=O)/C(C)=C/C=C\C(C)C(OC(N)=O)/C(C)=C\C(C)C1OC` (stereo unspecified), the T/C is 87 % of control (endpoint: median tumor weight change, dose: 6.25 mg/kg/injection, schedule: Q01DX001 (ip), vehicle: saline + Tween-80 + alcohol); 88 % of control (endpoint: median tumor weight change, dose: 12.5 mg/kg/injection, schedule: Q01DX001 (ip), vehicle: saline + Tween-80 + alcohol); 87 % of control (endpoint: median tumor weight change, dose: 25.0 mg/kg/injection, schedule: Q01DX001 (ip), vehicle: saline + Tween-80 + alcohol).

With `c1csc(C[N+]23CN4CN(CN(C4)C2)C3)c1`, the T/C under setting [2] is 80 % of control.

Take `COc1cccc2c1C(=O)c1c(O)c3c(c(O)c1C2=O)C[C@@](O)(C(O)CO)C[C@@H]3OC1CC(N)C(O)C(C)O1` (stereo partly specified): the T/C runs as follows: (endpoint: mean tumor weight, dose: 6.0 mg/kg/injection, schedule: Q07DX006 (ip), vehicle: saline) 33 % of control; (endpoint: mean tumor weight, dose: 12.0 mg/kg/injection, schedule: Q07DX006 (ip), vehicle: saline) 45 % of control; (endpoint: median tumor weight (est.), dose: 3.0 mg/kg/injection, schedule: Q07DX005 (ip), vehicle: saline) 77 % of control; (endpoint: median tumor weight (est.), dose: 6.0 mg/kg/injection, schedule: Q07DX005 (ip), vehicle: saline) 48 % of control; (endpoint: median tumor weight (est.), dose: 12.0 mg/kg/injection, schedule: Q07DX005 (ip), vehicle: saline) 26 % of control.

For `COC1OC(CO)C(O)C(NC(=O)N(C)N=O)C1O` (stereo unspecified), the T/C under setting [1] is 86 % of control.
